# Measurements published in patent publication US5045544A, “N'-alkyl-spiro-isoquinoline-pyrrolidine tetrones and analogs thereof useful as aldose reductase inhibitors” (American Home Products Corporation, priority 1990, dated 1991).
# What was measured:
# [1] = system: diaphragm; assay: dulcitol (galactitol) accumulation in the diaphragm of galactose-fed (galactosemic) rats; type: in vivo, rat (Sprague-Dawley); conditions: 4 days
# Source text: (§1) The aldose reductase inhibiting property of the compounds of this invention and the utilization of the compounds in preventing, diminishing and alleviating diabetic complications are demonstrable in experiments using galactosemic rats, see Dvornik et al., Science, 182, 1146 (1973). Such experiments are exemplified hereinbelow after the listing of the following general comments pertaining to these experiments:
# (§2) (a) Four or more groups of six male rats, 50-70 g, Sprague-Dawley strain, were used. The first group, the control group, was fed a mixture of laboratory chow (rodent Laboratory Chow, Purina) and glucose at 20% (w/w %) concentration. An untreated galactosemic group was fed a similar diet in which galactose was substituted for glucose. The third group was fed a diet prepared by mixing a given amount of the test compound with the galactose containing diet. The concentration of galactose in the diet of the treated groups was the same as that for the untreated galactosemic group.
# (§3) (b) After four days, the animals were killed by euthanization. Both the lens and sciatic nerve were removed, weighed and stored frozen for polyol determination.
# (§4) (c) The polyol determination was performed by a modification of the procedure of M. Kraml and L. Cosyns, Clin. Biochem., 2, 373 (1969). Only two minor reagent changes were made: (a) the rinsing mixture was an aqueous 5% (w/v) trichloroacetic acid solution and (b) the stock solution was prepared by dissolving 25 mg of dulcitol in 100 ml of an aqueous trichloroacetic acid solution. [N.B.: For each experiment the average value found in the tissue from rats fed the glucose diet was substracted from the individual values found in the corresponding tissue in galactose-fed rats to obtain the amount of polyol accumulated.] The aldose reductase inhibiting effects of the compounds of formula (I) were also tested by employing an in vitro testing procedure similar to that described by S. Hayman and J. H. Kinoshita, J. Biol. Chem., 240, 877 (1965). In the present case the procedure of Hayman and Kinoshita was modified in that the final chromatography step was omitted in the preparation of the enzyme from bovine lens.
# (§5) The figures under L, N, and D represent the percentage decrease of dulcitol accumulation in the tissues of the lens, sciatic nerve, and diaphragm, respectively, for treated rats as compared to untreated rats.
# [2] = molecular target: T1, aldose reductase (Bos taurus, UniProt P16116); assay: in vitro aldose reductase inhibition (modified Hayman and Kinoshita procedure, enzyme from bovine lens); type: biochemical; conditions: for inhibition at 1 µM: 10^-6 M; for inhibition at 10 µM: 10^-5 M
# T1 construct: preparation of the enzyme from bovine lens; from tissue; host or cells: bovine lens
# Protocol: as §4
# [3] = system: sciatic nerve; assay: dulcitol (galactitol) accumulation in the sciatic nerve of galactose-fed (galactosemic) rats; type: in vivo, rat (Sprague-Dawley); conditions: 4 days
# Source text: as §1, §2, §3, §4, §5
# [4] = system: lens; assay: dulcitol (galactitol) accumulation in the lens of galactose-fed (galactosemic) rats; type: in vivo, rat (Sprague-Dawley); conditions: 10.2 mg/kg in diet, 4 days
# Source text: as §1, §2, §3
# (c) The polyol determination was performed by a modification of the procedure of M. Kraml and L. Cosyns, Clin. Biochem., 2, 373 (1969). […]
structure (smiles),measurement,setting,value
"CCN1C(=O)CC2(C1=O)C(=O)N(Cc1nc3cc(C(F)(F)F)ccc3s1)C(=O)c1ccc(F)cc12 (centres unmarked) [R1=F, R4=C2 H5, R5=CF3, 1'-ethyl-6-fluoro-2-[[5-(trifluoromethyl)-2-benzothiazolyl]methyl]spiro[isoquinoline-4(1H),3'-pyrrolidine]-1,2',3,5'(2H)-tetrone]","% Lowering Galactitol Accumulation In Vivo, (%) D",[1]; 10 mg/kg/day in diet,59%
same,inhibition at 1 µM,[2],0%
"CCN1C(=O)CC2(C1=O)C(=O)N(Cc1ccc(Br)cc1F)C(=O)c1ccc(F)cc12 (centres unmarked) [R1=F, R4=CH2 CH3, 2-[(4-bromo-2-fluorophenyl)methyl]-1'-ethyl-6-fluorospiro[isoquinoline-4(1H),3'-pyrrolidine]-1,2',3,5'(2H)-tetrone]","% lowering dulcitol accumulation in vivo, % N",[3]; 0.5 mg/kg in diet,19%
same,"% lowering dulcitol accumulation in vivo, % N",[3]; 1.0 mg/kg in diet,74%
same,"% lowering dulcitol accumulation in vivo, % D",[1]; 0.5 mg/kg in diet,65%
same,"% lowering dulcitol accumulation in vivo, % D",[1]; 1.0 mg/kg in diet,84%
same,inhibition at 10 µM,[2],0%
"CCN1C(=O)CC2(C1=O)C(=O)N(Cc1ccc(Br)cc1F)C(=O)c1ccccc12 (centres unmarked) [R1=H, R4=CH2 CH3, 2-[(4-bromo-2-fluorophenyl)methyl]-1'-ethylspiro[isoquinoline-4(1H), 3'-pyrrolidine]-1,2',3,5'(2H)-tetrone]","% lowering dulcitol accumulation in vivo, % N",[3]; 0.5 mg/kg in diet,37%
same,"% lowering dulcitol accumulation in vivo, % N",[3]; 0.9 mg/kg in diet,65%
same,"% lowering dulcitol accumulation in vivo, % D",[1]; 0.5 mg/kg in diet,56%
same,"% lowering dulcitol accumulation in vivo, % D",[1]; 0.9 mg/kg in diet,73%
same,inhibition at 10 µM,[2],0%
"CN1C(=O)CC2(C1=O)C(=O)N(Cc1ccc(Br)cc1F)C(=O)c1ccccc12 (centres unmarked) [R1=H, R4=CH3, 2-[(4-bromo-2-fluorophenyl)methyl]-1'-methylspiro[isoquinoline-4(1H), 3'-pyrrolidine]-1,2',3,5'(2H)-tetrone]","% lowering dulcitol accumulation in vivo, % L",[4],31%
same,"% lowering dulcitol accumulation in vivo, % N",[3]; 0.5 mg/kg in diet,50%
same,"% lowering dulcitol accumulation in vivo, % N",[3]; 1.1 mg/kg in diet,76%
same,"% lowering dulcitol accumulation in vivo, % N",[3]; 10.2 mg/kg in diet,95%
same,"% lowering dulcitol accumulation in vivo, % D",[1]; 0.5 mg/kg in diet,61%
same,"% lowering dulcitol accumulation in vivo, % D",[1]; 1.1 mg/kg in diet,75%
same,"% lowering dulcitol accumulation in vivo, % D",[1]; 10.2 mg/kg in diet,94%
same,inhibition at 10 µM,[2],0%
"CN1C(=O)CC2(C1=O)C(=O)N(Cc1nc3cc(C(F)(F)F)ccc3s1)C(=O)c1ccccc12 (centres unmarked) [R1=H, R4=CH3, R5=CF3, 2-[[5-(trifluoromethyl)-2-benzothiazolyl]methyl]-1'-methylspiro[isoquinoline-4(1H),3'-pyrrolidine]-1,2',3,5'(2H)-tetrone]","% Lowering Galactitol Accumulation In Vivo, (%) N",[3]; 9.5 mg/kg/day in diet,82%
same,"% Lowering Galactitol Accumulation In Vivo, (%) D",[1]; 9.5 mg/kg/day in diet,100%
same,inhibition at 1 µM,[2],0%
